Assay results taken from US9227977B2, “Phosphoinositide 3-kinase inhibitors” (RESPIVERT LTD., priority 2013, dated 2016).
pEC50, pIC50: −log10 of the molar value. Like-named read-outs stand apart in the source and are kept apart here.

Assays:
PI3K δ [1] = target: T1, PI3K δ (Homo sapiens (Human), UniProt O00329); experiment: PI3K enzyme inhibition assay (HTRF TR-FRET); type: biochemical
Excerpt: (§1) The PI3K enzymes catalyse the phosphorylation of phosphatidylinositol 4,5-biphosphate (PIP2) to phosphatidylinositol 3,4,5-triphosphate (PIP3) in the presence of ATP and Mg^2+ ions. The PIP3 product can be detected by displacement of biotin-PIP3 from energy transfer complexes consisting of europium labelled anti-GST monoclonal antibody, a GST-tagged Pleckstrin homology (PH) domain, biotinylated PIP3 and streptavidin-allophycocyanin (APC) by the time-resolved fluorescence resonance energy transfer (TR-FRET) (HTRF®PI3K enzyme assay, Millipore). Excitation, at 330 nm, of europium in the complex results in an energy transfer to the APC and a fluorescent emission at 665 nm although europium itself emits at its characteristic wavelength of 620 nm. The PIP3 product formed by PI3K activity displaces biotin-PIP3 from the complex and results in a loss of energy transfer (decreasing signal).
(§2) The compound to be tested was added, at the desired final concentrations, to a mixture of PIP2 substrate and a recombinant PI3K enzyme (either α, β or δ isoforms, ex Millipore, or γ isoform [p110γ+p101 construct], ex United States Biological, Swampscott, Mass.) and the mixture incubated for 2 hr at RT. […] A stopping solution containing biotinylated PIP3 and the detection mix containing the GST tagged GRP1 pleckstrin homology (PH) domain and fluorophores were then added and the mixture was incubated at RT for 15-18 hr, prior to detection in a fluorescence microplate reader (Synergy 4, BioTek UK, Bedfordshire, UK).
(§3) The results were calculated according to the formula: APC signal (emission at 665 nm)/europium signal (emission at 620 nm)×10^4.
Target sequence in this assay (O00329 whole entry, species assumed): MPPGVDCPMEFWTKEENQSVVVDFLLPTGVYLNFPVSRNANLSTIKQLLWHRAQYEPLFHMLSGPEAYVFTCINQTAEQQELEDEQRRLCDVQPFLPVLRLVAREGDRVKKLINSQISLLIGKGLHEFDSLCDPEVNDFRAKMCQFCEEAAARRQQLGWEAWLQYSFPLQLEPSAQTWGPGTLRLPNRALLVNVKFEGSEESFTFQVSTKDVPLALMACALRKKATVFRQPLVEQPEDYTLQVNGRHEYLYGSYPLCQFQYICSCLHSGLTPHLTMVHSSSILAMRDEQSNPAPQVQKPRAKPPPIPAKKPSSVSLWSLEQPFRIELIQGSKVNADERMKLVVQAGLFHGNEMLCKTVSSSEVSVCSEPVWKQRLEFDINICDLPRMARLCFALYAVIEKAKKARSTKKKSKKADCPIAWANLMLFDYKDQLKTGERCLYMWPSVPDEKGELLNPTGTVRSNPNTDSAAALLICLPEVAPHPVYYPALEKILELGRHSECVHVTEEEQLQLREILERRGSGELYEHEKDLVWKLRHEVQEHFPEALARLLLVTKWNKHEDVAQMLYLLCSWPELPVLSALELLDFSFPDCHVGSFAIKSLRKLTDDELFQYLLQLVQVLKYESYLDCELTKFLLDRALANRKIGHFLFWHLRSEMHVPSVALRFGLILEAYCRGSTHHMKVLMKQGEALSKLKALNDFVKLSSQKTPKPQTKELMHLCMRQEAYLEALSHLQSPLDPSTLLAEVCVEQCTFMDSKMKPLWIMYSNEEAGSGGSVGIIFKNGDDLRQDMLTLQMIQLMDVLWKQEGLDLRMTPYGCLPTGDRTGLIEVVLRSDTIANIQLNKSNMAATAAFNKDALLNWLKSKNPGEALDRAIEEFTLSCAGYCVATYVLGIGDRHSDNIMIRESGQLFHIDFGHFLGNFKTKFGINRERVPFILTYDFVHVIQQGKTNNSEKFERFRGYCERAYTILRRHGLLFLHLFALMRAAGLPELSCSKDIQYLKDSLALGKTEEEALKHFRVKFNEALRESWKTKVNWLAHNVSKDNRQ
Target sequence in this assay (P27986 whole entry partner, species assumed): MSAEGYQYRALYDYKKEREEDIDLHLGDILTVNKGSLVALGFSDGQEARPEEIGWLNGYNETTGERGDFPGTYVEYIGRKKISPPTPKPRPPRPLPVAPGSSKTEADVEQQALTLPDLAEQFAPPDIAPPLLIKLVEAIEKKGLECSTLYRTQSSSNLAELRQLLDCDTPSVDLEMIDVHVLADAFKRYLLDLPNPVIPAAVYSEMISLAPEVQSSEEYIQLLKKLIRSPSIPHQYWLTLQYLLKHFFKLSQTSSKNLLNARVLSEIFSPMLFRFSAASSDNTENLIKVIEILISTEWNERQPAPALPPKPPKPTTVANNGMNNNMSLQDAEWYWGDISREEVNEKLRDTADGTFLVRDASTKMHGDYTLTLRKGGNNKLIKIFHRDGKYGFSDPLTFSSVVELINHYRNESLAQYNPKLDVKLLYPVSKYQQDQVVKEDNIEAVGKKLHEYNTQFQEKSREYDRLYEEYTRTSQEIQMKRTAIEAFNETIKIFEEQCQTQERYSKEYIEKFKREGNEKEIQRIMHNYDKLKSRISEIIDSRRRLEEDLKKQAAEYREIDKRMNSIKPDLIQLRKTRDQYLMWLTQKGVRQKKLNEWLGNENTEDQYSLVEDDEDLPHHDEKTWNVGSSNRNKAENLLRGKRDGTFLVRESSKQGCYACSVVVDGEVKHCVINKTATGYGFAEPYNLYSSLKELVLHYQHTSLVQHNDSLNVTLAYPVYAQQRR

PI3K α = PI3K α (Homo sapiens (Human), UniProt P42336); experiment: PI3K enzyme inhibition assay (HTRF TR-FRET); type: biochemical
Excerpt: as §1, §2, §3

PI3K γ = PI3K γ (Homo sapiens (Human), UniProt P48736); experiment: PI3K enzyme inhibition assay (HTRF TR-FRET); type: biochemical
Excerpt: as §1, §2, §3

PI3K δ [2] = target: T1, PI3K δ; experiment: PI3K δ cell based assay: H2O2-induced Akt phosphorylation in d-U937 cells; settings: inhibition of induced Akt phosphorylation, H2O2 stimulus; read-out: REC50 values in d-U937 cells, H2O2 stimulus
Protocol: As a means of assessing PI3K δ activation in response to stimuli, the phosphorylation status of the protein, Akt, a downstream product of PI3Kδ, signaling was determined.
U937 cells, obtained from a human, leukemic, monocyte lymphoma cell line, were differentiated to macrophage-type cells by incubation with PMA (100 ng/mL) for 48 to 72 hr. Cells were then pre-incubated with either the test compound or vehicle for 2 hr and were then stimulated briefly by exposure to H2O2 (10 mM, 5-7 min) and the reaction stopped by replacing the media with 4% formaldehyde solution. […] After washing with buffer (PBS containing 0.1% Triton X-100), cells were incubated with an HRP-conjugated secondary antibody (Dako) and the resultant signal was determined colorimetrically (OD: 450 nm with a reference wavelength of 655 nm) using TMB substrate (substrate reagent pack supplied by R&D Systems, Inc.).
This reaction was stopped by the addition of H2SO4 solution (100 μL). […] After washing with buffer (PBS containing 0.1% Triton X-100) 1% SDS (100 μL) was added to each well and the plates were shaken lightly for 1 hr prior to measuring the absorbance at 595 nm (Varioskan® Flash, Thermo-Fisher Scientific). The measured OD450-655 readings were corrected for cell number by dividing the OD450-655 by the OD595 readings. The ratio of pAkt signal to total Akt signal was used to quantitate the extent of PI3K δ activation. […]
Target sequence in this assay (O00329 whole entry): as the sequence (O00329 whole entry, species assumed) above
Target sequence in this assay (P27986 whole entry partner): as the sequence (P27986 whole entry partner, species assumed) above

[3] = test system: ovalbumin-induced airway eosinophilia and neutrophilia in mice; experiment: Ovalbumin-induced airway eosinophil and neutrophil accumulation in mice; type: in vivo, mouse; settings: OVA-sensitized mice, i-t; for Cell numbers in BALF, Eosinophils / Cell numbers in BALF, Neutrophils: mean ± SEM
Protocol: BALB/c mice (6-8 weeks old) were immunized with OVA (10 μg/mouse i.p.) on days 0 and 7. In order to elicit a local inflammatory response in the lung, mice were repeatedly challenged between days 13-15 with a nebulised solution of ovalbumin (10 mg/mL, 30 min exposure, De Vilibiss Ultraneb 2000). On day 17 each animal received via intra-tracheal administration of either vehicle or test compound 2 hr prior to the final OVA challenge. Animals were anaesthetized 8 hr later before undergoing a tracheotomy. BAL was obtained by instilling PBS (1 mL) into the lungs, which was then withdrawn. This procedure was repeated to provide approximately 2 mL of lavage fluid. Total cell numbers in the BALF samples were measured using a haemocytometer. Cytospin smears of the BALF samples were prepared by centrifugation at 200 rpm for 5 min at RT and stained using a DiffQuik stain system (Dade Behring) for differential cell counts. Cells were counted using oil immersion microscopy. Data is expressed as differential number of cells per mL of […] (mean±S.E.M).

PI3K α, sequence (P42336 whole entry, species assumed): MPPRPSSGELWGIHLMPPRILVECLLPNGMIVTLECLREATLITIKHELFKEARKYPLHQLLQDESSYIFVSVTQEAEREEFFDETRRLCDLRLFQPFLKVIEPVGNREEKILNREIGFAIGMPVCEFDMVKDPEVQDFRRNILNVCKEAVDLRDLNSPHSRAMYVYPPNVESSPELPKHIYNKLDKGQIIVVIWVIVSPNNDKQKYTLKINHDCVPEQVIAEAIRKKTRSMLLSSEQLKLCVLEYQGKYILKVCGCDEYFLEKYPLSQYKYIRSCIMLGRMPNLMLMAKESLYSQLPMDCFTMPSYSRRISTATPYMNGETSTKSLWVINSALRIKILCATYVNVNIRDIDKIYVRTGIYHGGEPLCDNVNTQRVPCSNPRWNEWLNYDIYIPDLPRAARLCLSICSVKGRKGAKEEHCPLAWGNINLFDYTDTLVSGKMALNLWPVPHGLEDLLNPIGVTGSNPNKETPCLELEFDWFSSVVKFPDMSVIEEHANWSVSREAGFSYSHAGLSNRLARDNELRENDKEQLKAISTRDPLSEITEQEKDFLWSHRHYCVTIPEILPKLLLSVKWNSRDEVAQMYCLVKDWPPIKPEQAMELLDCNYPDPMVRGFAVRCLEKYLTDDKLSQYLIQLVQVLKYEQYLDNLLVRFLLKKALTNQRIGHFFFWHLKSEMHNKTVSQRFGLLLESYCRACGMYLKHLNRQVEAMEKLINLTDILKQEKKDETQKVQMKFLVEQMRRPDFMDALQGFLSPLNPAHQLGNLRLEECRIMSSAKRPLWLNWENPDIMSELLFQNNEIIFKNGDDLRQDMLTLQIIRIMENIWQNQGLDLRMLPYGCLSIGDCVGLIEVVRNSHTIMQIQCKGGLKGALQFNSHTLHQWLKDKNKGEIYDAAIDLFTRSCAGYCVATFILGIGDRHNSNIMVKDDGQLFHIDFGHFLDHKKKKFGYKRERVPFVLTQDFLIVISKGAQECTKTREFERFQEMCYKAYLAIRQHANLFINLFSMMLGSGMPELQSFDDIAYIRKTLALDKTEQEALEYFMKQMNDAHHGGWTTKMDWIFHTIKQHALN
PI3K α, sequence (P27986 whole entry partner, species assumed): as the sequence (P27986 whole entry partner, species assumed) above
PI3K γ, sequence (P48736 whole entry, species assumed): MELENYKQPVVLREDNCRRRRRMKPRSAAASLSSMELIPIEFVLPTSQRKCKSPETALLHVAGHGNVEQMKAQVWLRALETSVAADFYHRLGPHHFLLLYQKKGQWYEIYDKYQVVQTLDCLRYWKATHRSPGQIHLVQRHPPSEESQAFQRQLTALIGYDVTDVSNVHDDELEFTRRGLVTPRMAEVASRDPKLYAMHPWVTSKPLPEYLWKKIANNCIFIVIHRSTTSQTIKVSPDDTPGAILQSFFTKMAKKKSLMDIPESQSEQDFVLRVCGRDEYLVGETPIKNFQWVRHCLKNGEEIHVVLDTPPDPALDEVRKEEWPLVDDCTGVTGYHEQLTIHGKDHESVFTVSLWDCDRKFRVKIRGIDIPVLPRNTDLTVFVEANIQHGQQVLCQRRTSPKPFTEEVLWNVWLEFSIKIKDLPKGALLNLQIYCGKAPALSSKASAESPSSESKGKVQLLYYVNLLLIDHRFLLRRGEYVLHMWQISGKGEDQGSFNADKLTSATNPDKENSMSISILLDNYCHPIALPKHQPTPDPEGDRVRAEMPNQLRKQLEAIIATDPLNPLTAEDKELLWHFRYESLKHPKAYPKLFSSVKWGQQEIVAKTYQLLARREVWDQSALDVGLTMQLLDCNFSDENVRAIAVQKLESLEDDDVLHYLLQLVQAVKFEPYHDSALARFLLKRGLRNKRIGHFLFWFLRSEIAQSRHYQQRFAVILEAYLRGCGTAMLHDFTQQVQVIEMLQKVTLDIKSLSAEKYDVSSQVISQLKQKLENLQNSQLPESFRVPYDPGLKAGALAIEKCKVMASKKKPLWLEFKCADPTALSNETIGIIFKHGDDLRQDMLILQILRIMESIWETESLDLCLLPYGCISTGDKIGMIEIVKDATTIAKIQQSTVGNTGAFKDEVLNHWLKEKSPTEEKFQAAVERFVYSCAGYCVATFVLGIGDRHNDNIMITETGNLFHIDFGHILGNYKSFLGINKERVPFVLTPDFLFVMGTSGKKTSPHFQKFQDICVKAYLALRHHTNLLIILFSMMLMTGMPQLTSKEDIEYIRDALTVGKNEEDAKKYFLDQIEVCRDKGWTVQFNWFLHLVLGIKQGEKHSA
PI3K γ, sequence (Q8WYR1 whole entry partner, species assumed): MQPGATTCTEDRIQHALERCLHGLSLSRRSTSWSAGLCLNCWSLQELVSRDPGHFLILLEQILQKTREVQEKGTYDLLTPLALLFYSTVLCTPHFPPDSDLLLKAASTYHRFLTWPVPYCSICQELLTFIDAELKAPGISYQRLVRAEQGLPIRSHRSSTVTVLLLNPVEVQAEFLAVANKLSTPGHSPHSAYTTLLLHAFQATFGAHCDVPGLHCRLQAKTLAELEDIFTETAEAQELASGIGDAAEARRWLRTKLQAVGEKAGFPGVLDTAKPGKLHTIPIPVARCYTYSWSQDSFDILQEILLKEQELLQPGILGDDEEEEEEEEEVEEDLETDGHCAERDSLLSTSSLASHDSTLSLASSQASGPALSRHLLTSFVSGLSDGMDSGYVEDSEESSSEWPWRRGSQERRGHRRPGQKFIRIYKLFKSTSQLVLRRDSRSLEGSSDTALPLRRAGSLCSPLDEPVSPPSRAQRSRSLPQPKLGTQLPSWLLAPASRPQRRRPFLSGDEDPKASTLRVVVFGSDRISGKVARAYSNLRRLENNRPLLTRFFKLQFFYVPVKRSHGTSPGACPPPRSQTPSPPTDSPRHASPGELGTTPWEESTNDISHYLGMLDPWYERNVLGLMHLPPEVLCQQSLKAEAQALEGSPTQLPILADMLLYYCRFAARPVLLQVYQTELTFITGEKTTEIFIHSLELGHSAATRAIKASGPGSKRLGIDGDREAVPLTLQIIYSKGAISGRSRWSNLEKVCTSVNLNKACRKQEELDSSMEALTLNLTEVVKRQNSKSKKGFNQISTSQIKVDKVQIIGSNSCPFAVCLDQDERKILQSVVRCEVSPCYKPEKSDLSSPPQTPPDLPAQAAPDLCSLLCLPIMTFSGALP

Q: With `COCCOCCOCC#Cc1cccc2nc(Cn3nc(-c4cc(O)cc(F)c4)c4c(N)ncnc43)n(Cc3ccccc3C(F)(F)F)c(=O)c12` [Compound (I), 2-((4-Amino-3-(3-fluoro-5-hydroxyphenyl)-1H-pyrazolo[3,4-d]pyrimidin-1-yl)methyl)-5-(3-(2-(2-methoxyethoxy)ethoxy)prop-1-yn-1-yl)-3-(2-(trifluoromethyl)benzyl)quinazolin-4(3H)-one] as the molecule, how does the pIC50 (PI3K δ [1]; read-out: IC50 Values for PI3K inhibition at isozyme indicated, PI3K δ) read?
A: 8.60

Q: And the pIC50 (PI3K δ [1]; read-out: PI3 Kinase Inhibition IC50 value at state isozyme, δ)?
A: 8.60

Q: What about the “inhibitory activity versus PI3K α in enzyme assays (in words)” value (PI3K α) of the same molecule?
A: no inhibitory activity

Q: And the pIC50 (PI3K α; read-out: IC50 Values for PI3K inhibition at isozyme indicated, PI3K α)?
A: < 4.86

Q: What about the pIC50 (PI3K α; read-out: PI3 Kinase Inhibition IC50 value at state isozyme, α) of the same molecule?
A: < 4.86

Q: And the pIC50 (PI3K γ; read-out: IC50 Values for PI3K inhibition at isozyme indicated, PI3K γ)?
A: 7.55

Q: And the pIC50 (PI3K γ; read-out: PI3 Kinase Inhibition IC50 value at state isozyme, γ)?
A: 7.55

Q: And the pEC50 (PI3K δ [2])?
A: 8.13

Q: And the “% inhibition, Eosinophils in BALF” value ([3]; 0.05 mg/mL)?
A: 20%

Q: And the “% inhibition, Neutrophils in BALF” value ([3]; 0.05 mg/mL)?
A: 18%

Q: What about the “Cell numbers in BALF, Eosinophils” value ([3]; 0.05 mg/mL) of the same molecule?
A: 19.7 ± 3.2 x10^4/mL

Q: What about the “Cell numbers in BALF, Neutrophils” value ([3]; 0.05 mg/mL) of the same molecule?
A: 8.0 ± 0.4 x10^4/mL

Q: And the “% inhibition, Eosinophils in BALF” value ([3]; 0.2 mg/mL)?
A: 85%

Q: What about the “% inhibition, Neutrophils in BALF” value ([3]; 0.2 mg/mL) of the same molecule?
A: 70%

Q: What about the “Cell numbers in BALF, Eosinophils” value ([3]; 0.2 mg/mL) of the same molecule?
A: 3.8 ± 0.9 x10^4/mL

Q: What about the “Cell numbers in BALF, Neutrophils” value ([3]; 0.2 mg/mL) of the same molecule?
A: 2.9 ± 0.5 x10^4/mL

Q: And the “% inhibition, Eosinophils in BALF” value ([3]; 1 mg/mL)?
A: 91%

Q: And the “% inhibition, Neutrophils in BALF” value ([3]; 1 mg/mL)?
A: 80%

Q: And the “Cell numbers in BALF, Eosinophils” value ([3]; 1 mg/mL)?
A: 2.1 ± 0.4 x10^4/mL

Q: What about the “Cell numbers in BALF, Neutrophils” value ([3]; 1 mg/mL) of the same molecule?
A: 2.0 ± 0.3 x10^4/mL
